Measurements: patent US20230096380A1, “COMPOUNDS, COMPOSITIONS, METHODS FOR TREATING DISEASES AND NERVE DAMAGE, AND METHODS FOR PREPARING COMPOUNDS” (CHILDREN'S HOSPITAL MEDICAL CENTER, priority 2020, published 2023)
“Also recorded” adds a separate entry of the source.

Columns and labels:
p300 = biological target: T1, p300 (Rattus norvegicus, UniProt A0ABK0LGW0); assay: p300 activity inhibition (FIG. 2)
T1 construct: Isolated rat OPCs were grown in Sato growth medium; endogenous in cells; host or cells: primary rat oligodendrocyte progenitor cells (OPCs) from newborn rat brain

EAE mice = assay: Visual evoked potential (VEP) analyses on EAE mice (FIG. 17); format: in vivo; details: EAE mice at the peak of disease, versus Vehicle
Description: FIG. 17. Visual evoked potential (VEP) analyses were carried out on EAE mice treated with Vehicle and compound I-1 at the peak of disease. This method generally follows that found in YOU et al. (2011) “Latency delay of visual evoked potential is a real measurement of demyelination in a rat model of optic neuritis” Invest Ophthalmol Vis Sci, Vol. 52, pp. 6911-6918.

[1] = tested on: Rat oligodendrocyte progenitor cells (OPCs); assay: Rat OPC differentiation, MBP and Olig2 immunostaining after 48 h treatment (FIG. 18); format: cell-based; details: for OPC differentiation (MBP, Olig2 immunostaining): at the indicated concentration
Description: FIG. 18. Methods: This method generally follows that found in WANG et al. (2017) “miR-219 Cooperates with miR-338 in Myelination and Promotes Myelin Repair in the CNS” Dev Cell, Vol. 40, pp. 566-582. Rat oligodendrocyte progenitor cells (OPCs) were seeded on coverslip and treated with compounds, I-1, I-16, I-15, I-13, I-8, and I-17 at the indicated concentration. Cells were immunostained with a mature oligodendrocyte marker MBP and an oligodendrocyte lineage marker Olig2 after 48 h treatment.

[2] = tested on: experimental autoimmune encephalomyelitis (EAE) demyelinating mouse model; assay: EAE demyelinating mouse model induced by myelin peptide MOG35-55 (FIG. 7); format: in vivo; details: EAE mice
Source text: FIG. 7. This method generally follows that found in WANG et al. (2017) “miR-219 Cooperates with miR-338 in Myelination and Promotes Myelin Repair in the CNS” Dev Cell, Vol. 40, pp. 566-582.

[3] = tested on: Primary oligodendrocyte progenitor cells (OPCs); assay: Rat primary OPC differentiation, immunostaining for MBP, OLIG2 and/or cleaved Caspase 3 (FIGS. 1-6); format: cell-based
Source text: FIGS. 1-6. Primary oligodendrocyte progenitor cells (OPCs) were obtained from newborn rat brains after preparation of mixed glial cultures. This method generally follows that found in ZHAO et al. (2018) “Dual Requirement of CHD8 for Chromatin Landscape Establishment and Histone Methyltransferase Recruitment to Promote CNS Myelination and Repair” Dev Cell, Vol. 45, pp. 753-768. Briefly, mixed glial cells were initially cultured in DMEM-F12 medium supplied with 15% FBS, then switched to B104 conditioned medium for 2 days before isolating OPCs by mechanical detachment in an orbital shaker. Isolated rat OPCs were grown in Sato growth medium supplemented with mitogens 10 ng/ml PDGF-AA and 10 ng/ml bFGF. OPCs were then treated with indicated compounds and immunostained with oligodendrocyte myelination markers MBP and OLIG2, and/or a cell death marker cleaved Caspase 3. T3 ((2S)-2-amino-3-[4-(4-hydroxy-3-iodophenoxy)-3,5-diiodophenyl]propanoic acid; CAS 6893-02-3) was used as a positive control; the T3 concentration used was 15 nm.

T1 sequence (A0ABK0LGW0 1-2423): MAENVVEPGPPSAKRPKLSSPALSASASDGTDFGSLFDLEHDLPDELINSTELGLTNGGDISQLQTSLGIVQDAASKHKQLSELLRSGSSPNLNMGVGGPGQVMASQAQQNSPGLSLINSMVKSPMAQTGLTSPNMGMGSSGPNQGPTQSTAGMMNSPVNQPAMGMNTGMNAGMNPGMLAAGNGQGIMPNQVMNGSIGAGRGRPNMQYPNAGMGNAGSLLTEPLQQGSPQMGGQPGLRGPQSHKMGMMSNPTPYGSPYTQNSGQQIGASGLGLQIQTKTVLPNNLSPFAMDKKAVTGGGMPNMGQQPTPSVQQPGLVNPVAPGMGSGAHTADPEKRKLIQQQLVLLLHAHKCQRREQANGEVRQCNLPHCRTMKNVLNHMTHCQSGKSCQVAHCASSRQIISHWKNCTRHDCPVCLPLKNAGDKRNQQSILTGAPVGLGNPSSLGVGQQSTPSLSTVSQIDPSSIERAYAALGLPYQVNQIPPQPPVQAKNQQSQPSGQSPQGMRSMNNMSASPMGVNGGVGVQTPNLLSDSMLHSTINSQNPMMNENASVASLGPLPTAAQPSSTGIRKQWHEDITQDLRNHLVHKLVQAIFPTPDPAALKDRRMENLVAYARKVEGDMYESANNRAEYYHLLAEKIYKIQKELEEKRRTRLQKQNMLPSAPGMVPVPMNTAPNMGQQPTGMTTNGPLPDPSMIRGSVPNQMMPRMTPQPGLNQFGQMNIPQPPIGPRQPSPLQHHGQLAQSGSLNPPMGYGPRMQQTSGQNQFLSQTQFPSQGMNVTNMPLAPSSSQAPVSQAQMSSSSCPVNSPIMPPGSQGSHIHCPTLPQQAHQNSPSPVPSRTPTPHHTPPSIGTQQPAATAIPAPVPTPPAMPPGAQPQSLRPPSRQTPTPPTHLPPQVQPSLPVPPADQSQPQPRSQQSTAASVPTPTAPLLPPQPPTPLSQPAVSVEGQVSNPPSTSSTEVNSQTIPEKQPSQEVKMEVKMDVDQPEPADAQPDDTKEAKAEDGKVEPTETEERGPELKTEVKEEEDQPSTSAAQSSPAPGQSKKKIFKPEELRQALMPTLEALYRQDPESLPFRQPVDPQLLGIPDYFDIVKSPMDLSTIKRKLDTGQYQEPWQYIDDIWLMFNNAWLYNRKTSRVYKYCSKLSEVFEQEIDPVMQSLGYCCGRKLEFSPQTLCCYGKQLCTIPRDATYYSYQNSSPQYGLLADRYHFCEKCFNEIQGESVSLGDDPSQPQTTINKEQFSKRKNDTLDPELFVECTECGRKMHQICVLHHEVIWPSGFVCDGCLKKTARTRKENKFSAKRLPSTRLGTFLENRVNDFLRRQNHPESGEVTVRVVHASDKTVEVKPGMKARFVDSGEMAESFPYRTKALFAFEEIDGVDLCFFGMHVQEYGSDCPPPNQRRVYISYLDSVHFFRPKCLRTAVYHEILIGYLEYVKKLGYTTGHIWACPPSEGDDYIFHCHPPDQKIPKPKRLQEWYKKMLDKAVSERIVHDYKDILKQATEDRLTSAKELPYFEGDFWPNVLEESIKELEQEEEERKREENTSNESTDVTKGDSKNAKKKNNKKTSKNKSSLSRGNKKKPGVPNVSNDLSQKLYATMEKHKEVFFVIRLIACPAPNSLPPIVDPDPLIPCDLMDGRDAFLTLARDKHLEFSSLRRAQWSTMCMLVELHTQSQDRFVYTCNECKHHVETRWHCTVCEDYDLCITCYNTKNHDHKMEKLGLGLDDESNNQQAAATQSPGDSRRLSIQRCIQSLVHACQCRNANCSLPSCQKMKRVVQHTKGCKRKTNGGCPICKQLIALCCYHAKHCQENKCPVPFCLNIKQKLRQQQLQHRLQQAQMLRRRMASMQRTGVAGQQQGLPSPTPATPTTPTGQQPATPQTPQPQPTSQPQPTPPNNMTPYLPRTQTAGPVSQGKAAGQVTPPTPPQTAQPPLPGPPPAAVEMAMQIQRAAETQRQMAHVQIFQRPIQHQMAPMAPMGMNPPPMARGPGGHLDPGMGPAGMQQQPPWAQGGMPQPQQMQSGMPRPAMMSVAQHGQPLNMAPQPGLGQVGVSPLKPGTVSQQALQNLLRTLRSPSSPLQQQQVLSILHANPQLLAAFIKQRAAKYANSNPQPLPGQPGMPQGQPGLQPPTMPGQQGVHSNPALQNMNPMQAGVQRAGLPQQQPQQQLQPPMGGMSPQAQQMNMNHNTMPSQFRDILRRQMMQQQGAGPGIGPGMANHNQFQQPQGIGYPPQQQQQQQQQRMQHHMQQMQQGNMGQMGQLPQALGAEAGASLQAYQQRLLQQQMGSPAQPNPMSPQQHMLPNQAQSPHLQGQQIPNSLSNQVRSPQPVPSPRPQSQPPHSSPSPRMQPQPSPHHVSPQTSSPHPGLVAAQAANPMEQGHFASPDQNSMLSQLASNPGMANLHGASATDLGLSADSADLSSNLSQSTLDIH

Structure (SMILES): CNC(=O)Nc1ccc2c(c1)CC[C@@]21OC(=O)N(CC(=O)N(Cc2ccc(F)cc2)[C@@H](C)C(F)(F)F)C1=O [Compound A485]
- p300 activity (p300): inhibits p300 activity

Structure (SMILES): Nc1ccccc1NC(=O)c1cnc(NCc2ccccc2)cn1 [Compound I-1]
- VEP N1 signals (EAE mice): showed greater and faster conducting VEP N1 signals
- OPC differentiation (MBP, Olig2 immunostaining) [1]: promote OPC differentiation
- functional regeneration [2]: promotes functional regeneration
- EAE disease severity / motor function (clinical scores) ([2]; MOG35-55 induced): improved motor function reflected in clinical scores; also recorded: reduced EAE disease severity
- myelin MBP+ cell formation 3 days after treatment ([3]; 3 days after treatment, FIG. 6): enhances myelin MBP+ cell formation
- myelin MBP+ cell formation ([3]; FIG. 5): enhances myelin MBP+ cell formation
- oligodendrocyte differentiation and myelination in vitro ([3]; rat OPCs, MBP/OLIG2 immunostaining, FIGS. 1-6): promoted oligodendrocyte differentiation and myelination in vitro
- OPC differentiation ([3]; rat primary OPCs, FIGS. 1, 3, 4): promotes oligodendrocyte progenitor cell (OPC) differentiation
- myelin formation in presence of A485 ([3]; with p300 inhibitor A485, FIG. 2): appears to overcome A485 inhibition to enhance myelin formation

Structure (SMILES): Nc1ccccc1NC(=O)c1cnc(NC(c2ccccc2)c2ccccc2)cn1 [Compound I-8]
- activity in promoting OPC into mature oligodendrocytes relative to compound I-1 [1]: comparable activity with compound I-1
- OPC differentiation (MBP, Olig2 immunostaining) [1]: promote OPC differentiation

Structure (SMILES): Nc1ccccc1NC(=O)c1cnc(NC(=O)C(c2ccccc2)c2ccccc2)cn1 [Compound I-13]
- OPC differentiation (MBP, Olig2 immunostaining) [1]: promote OPC differentiation

Structure (SMILES): Nc1ccccc1NC(=O)c1cnc(NC2=N[C@H](c3ccccc3)[C@H](c3ccccc3)O2)cn1 [Compound I-15]
- OPC differentiation (MBP, Olig2 immunostaining) [1]: promote OPC differentiation

Structure (SMILES): CC(C(=O)Nc1cnc(C(=O)Nc2ccccc2N)cn1)c1ccccc1 (centres unmarked) [Compound I-16]
- OPC differentiation (MBP, Olig2 immunostaining) [1]: promote OPC differentiation

Structure (SMILES): Nc1ccccc1NC(=O)c1cnc(NC(=O)C(N)c2ccccc2)cn1 (centres unmarked) [Compound I-17]
- activity in promoting OPC into mature oligodendrocytes relative to compound I-1 [1]: comparable activity with compound I-1
- OPC differentiation (MBP, Olig2 immunostaining) [1]: promote OPC differentiation
